{
  "source": "ChEMBL document CHEMBL1153042",
  "about": "“Fatty acid amide hydrolase inhibitors. Surprising selectivity of chiral azetidine ureas” (Bioorg Med Chem Lett, 2009)",
  "key": {"[1]": {"target": "T1, Fatty-acid amide hydrolase 1 (Homo sapiens, UniProt O00519)", "T1 sequence (O00519 whole entry)": "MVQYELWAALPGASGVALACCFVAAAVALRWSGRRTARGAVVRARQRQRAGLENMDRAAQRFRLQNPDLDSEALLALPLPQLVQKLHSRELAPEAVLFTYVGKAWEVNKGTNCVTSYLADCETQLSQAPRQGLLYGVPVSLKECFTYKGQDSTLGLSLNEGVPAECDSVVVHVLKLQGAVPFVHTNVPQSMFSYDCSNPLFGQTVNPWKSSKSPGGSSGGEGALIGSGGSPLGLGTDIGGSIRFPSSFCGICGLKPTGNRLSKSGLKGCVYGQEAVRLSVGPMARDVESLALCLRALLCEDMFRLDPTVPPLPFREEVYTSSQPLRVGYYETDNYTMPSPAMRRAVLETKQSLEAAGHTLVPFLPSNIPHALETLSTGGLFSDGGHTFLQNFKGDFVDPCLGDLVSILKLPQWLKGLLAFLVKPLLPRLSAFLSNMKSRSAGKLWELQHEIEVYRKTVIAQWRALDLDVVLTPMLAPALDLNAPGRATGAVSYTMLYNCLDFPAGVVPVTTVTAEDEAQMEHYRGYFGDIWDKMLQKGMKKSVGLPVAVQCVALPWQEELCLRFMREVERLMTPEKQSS", "test": "Inhibition of human FAAH incubated 1 hr prior to addition of arachidonyl-amino-methyl-coumarin amide"}, "[2]": {"target": "T1, Fatty-acid amide hydrolase 1", "test": "Inhibition of human FAAH incubated 3 hrs prior to addition of arachidonyl-amino-methyl-coumarin amide"}, "[3]": {"target": "T2, Fatty-acid amide hydrolase 1 (Rattus norvegicus, UniProt P97612)", "T2 sequence (P97612 whole entry)": "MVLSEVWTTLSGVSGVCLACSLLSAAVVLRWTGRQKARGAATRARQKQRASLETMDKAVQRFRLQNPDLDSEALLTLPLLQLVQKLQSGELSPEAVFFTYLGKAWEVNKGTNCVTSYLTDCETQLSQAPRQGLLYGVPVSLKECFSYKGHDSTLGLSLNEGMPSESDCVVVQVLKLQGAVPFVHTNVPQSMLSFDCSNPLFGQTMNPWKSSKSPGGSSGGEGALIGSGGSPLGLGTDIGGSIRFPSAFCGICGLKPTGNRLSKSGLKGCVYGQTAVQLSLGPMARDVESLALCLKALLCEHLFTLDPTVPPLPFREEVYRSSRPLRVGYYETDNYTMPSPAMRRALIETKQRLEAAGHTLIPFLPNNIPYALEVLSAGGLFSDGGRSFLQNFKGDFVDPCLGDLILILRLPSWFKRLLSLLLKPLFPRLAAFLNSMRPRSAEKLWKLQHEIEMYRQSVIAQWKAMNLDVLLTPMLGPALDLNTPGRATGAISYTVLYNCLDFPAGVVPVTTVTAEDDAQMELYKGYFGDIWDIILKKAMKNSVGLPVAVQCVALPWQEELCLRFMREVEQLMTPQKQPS", "test": "Inhibition of rat FAAH incubated 1 hr prior to addition of arachidonyl-amino-methyl-coumarin amide"}, "[4]": {"target": "T2, Fatty-acid amide hydrolase 1", "test": "Inhibition of rat FAAH incubated 3 hrs prior to addition of arachidonyl-amino-methyl-coumarin amide"}, "Cannabinoid receptor 1": {"target": "Cannabinoid receptor 1 (Homo sapiens, UniProt P21554)", "sequence (P21554 whole entry)": "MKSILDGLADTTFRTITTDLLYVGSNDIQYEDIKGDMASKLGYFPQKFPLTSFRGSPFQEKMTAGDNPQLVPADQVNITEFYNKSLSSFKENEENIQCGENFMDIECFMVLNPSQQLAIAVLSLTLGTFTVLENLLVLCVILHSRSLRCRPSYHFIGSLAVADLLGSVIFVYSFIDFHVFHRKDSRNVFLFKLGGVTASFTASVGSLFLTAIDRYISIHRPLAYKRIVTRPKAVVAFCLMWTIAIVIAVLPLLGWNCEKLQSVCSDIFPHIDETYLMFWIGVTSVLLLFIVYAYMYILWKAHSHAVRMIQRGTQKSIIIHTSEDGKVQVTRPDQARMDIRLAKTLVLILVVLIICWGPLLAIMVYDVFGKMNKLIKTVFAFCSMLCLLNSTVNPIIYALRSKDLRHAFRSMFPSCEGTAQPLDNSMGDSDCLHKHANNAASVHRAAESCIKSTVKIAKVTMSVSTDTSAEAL", "test": "Displacement of [3H]SR141716A from human CB1 receptor"}, "Cannabinoid receptor 2": {"target": "Cannabinoid receptor 2 (Homo sapiens, UniProt P34972)", "sequence (P34972 whole entry)": "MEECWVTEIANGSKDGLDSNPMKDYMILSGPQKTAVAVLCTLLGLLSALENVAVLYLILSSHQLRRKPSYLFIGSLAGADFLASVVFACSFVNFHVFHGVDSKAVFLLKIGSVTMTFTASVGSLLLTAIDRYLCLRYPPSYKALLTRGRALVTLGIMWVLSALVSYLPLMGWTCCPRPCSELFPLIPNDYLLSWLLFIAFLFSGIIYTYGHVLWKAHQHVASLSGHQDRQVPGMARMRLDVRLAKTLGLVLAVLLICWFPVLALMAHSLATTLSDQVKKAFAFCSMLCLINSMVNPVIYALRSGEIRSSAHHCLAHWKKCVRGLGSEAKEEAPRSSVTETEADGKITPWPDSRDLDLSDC", "test": "Displacement of [3H]CP-55940 from human CB2 receptor"}},
  "data": [
    {"smiles": "O=C(N1CCCCC1)N1CC(O[C@@H](c2ccc(Cl)cc2)c2cccnc2Cl)C1", "values": [
      {"measurement": "IC50", "setting": "[1]", "value": 140, "unit": "nM"},
      {"measurement": "IC50", "setting": "[2]", "value": 78, "unit": "nM"},
      {"measurement": "IC50", "setting": "[3]", "value": 1030, "unit": "nM"},
      {"measurement": "IC50", "setting": "[4]", "value": 531, "unit": "nM"},
      {"measurement": "Ki", "setting": "Cannabinoid receptor 1", "value": 560, "unit": "nM"},
      {"measurement": "Ki", "setting": "Cannabinoid receptor 2", "value": 7190, "unit": "nM"}
    ]},
    {"smiles": "O=C(N1CCCCC1)N1CC(O[C@H](c2ccc(Cl)cc2)c2cccnc2Cl)C1", "values": [
      {"measurement": "IC50", "setting": "[1]", "value": "> 10000", "unit": "nM"},
      {"measurement": "IC50", "setting": "[2]", "value": "> 10000", "unit": "nM"},
      {"measurement": "IC50", "setting": "[3]", "value": "> 10000", "unit": "nM"},
      {"measurement": "IC50", "setting": "[4]", "value": "> 10000", "unit": "nM"},
      {"measurement": "Ki", "setting": "Cannabinoid receptor 1", "value": "< 10", "unit": "nM"},
      {"measurement": "Ki", "setting": "Cannabinoid receptor 2", "value": 10900, "unit": "nM"}
    ]},
    {"smiles": "O=C(N1CCCCC1)N1CC(OC(c2ccc(Cl)cc2)c2cccnc2Cl)C1", "note": "(racemic)", "values": [
      {"measurement": "IC50", "setting": "[1]", "value": 291, "unit": "nM"},
      {"measurement": "IC50", "setting": "[2]", "value": 188, "unit": "nM"},
      {"measurement": "Ki", "setting": "Cannabinoid receptor 1", "value": "< 10", "unit": "nM"}
    ]}
  ]
}
